# From patent US11089783B2, “2-(het)aryl-substituted fused heterocycle derivatives as pesticides” (Bayer Aktiengesellschaft, priority 2017, dated 2021)
# Key:
# Format in all cases: in vivo
# Diabrotica balteata = Diabrotica balteata drench test (DIABBA); conditions: soil, 192 h, 8 dat, read-out: % efficacy
# Protocol: [table] To produce an appropriate active ingredient formulation, 1 part by weight of active ingredient is mixed with the specified amounts of solvent and emulsifier and the concentrate is diluted to the desired concentration with water, it being necessary to take into account the volume of soil into which drenching is effected. It should be ensured that a concentration of 40 ppm of emulsifier in the soil is not exceeded. For production of further test concentrations, the mixture is diluted with water. 5 maize kernels in each case are sown into soil-filled pots (Zea mays) and, the next day, drenched with the active ingredient formulation of the desired concentration. After one day, about 25 L2 larvae of the banded cucumber beetle (Diabrotica balteata) were added. After 8 days, the efficacy in % is determined. 100% means that all 5 plants have germinated and grown; 0% means that no plant has emerged.
# Nezara viridula = Nezara viridula spray test (NEZARA / NEZAVI); conditions: Nezara viridula, 96 h, 4 g/ha, 4 dat, read-out: % efficacy
# Outline: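 Barley plants infested with Nezara viridula larvae were sprayed with active ingredient in solvent/emulsifier water (1000 ppm emulsifier; ammonium salt or penetrant at 1000 ppm if added). Efficacy scored as % mortality after the set time (100% = all bugs killed).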
# Myzus persicae = Myzus persicae oral test; conditions: 120 h, after 5 days, read-out: efficacy
# Outline: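 Compound solution in IPL41 insect medium with sugar was sealed under parafilm, through which a mixed population of green peach aphids fed. Mortality was scored after 5 days as % efficacy, with 100% meaning all aphids killed.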
# Phaedon cochleariae = Phaedon cochleariae spray test (PHAECO S), cabbage leaves; conditions: Phaedon cochleariae, 168 h, 7 dat, read-out: % efficacy
# Protocol: [table] To produce an appropriate active ingredient formulation, 1 part by weight of active ingredient is dissolved with the specified parts by weight of solvent and made up with water containing an emulsifier concentration of 1000 ppm until the desired concentration is attained. To produce further test concentrations, the mixture is diluted with emulsifier-containing water. If addition of ammonium salts or/and penetrants is required, these are each added to the preparation solution in a concentration of 1000 ppm. Cabbage leaves (Brassica oleracea) are sprayed with an active ingredient formulation of the desired concentration and populated with larvae of the mustard beetle (Phaedon cochleariae). After the desired time, the kill in % is determined. 100% means that all beetle larvae have been killed; 0% means that no beetle larvae have been killed.
# Aphis gossypii = Aphis gossypii spray test (APHIGO), cotton plants; conditions: Aphis gossypii, 144 h, 4 ppm, 6 dat, read-out: % efficacy
# Outline: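 Cotton plants (Gossypium hirsutum) heavily infested with cotton aphids were sprayed with the active ingredient formulated in emulsifier-containing water (1000 ppm emulsifier), with ammonium salt or penetrant added at 1000 ppm where required. After the set time, percent kill was determined, where 100% means all aphids dead.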
# Ctenocephalides felis = Ctenocephalides felis in vitro contact test with adult cat fleas; conditions: 5 μg/cm^2 (=500 g/ha), after 48 h
# Protocol: For the coating of the test tubes, 9 mg of active ingredient are first dissolved in 1 ml of acetone p.a. and then diluted to the desired concentration with acetone p.a. 250 μl of the solution are distributed homogeneously on the inner walls and the base of a 25 ml glass tube by turning and rocking on an orbital shaker (rocking rotation at 30 rpm for 2 h). With 900 ppm of active ingredient solution and internal surface area 44.7 cm^2, given homogeneous distribution, an area-based dose of 5 μg/cm^2 is achieved. After the solvent has evaporated off, the tubes are populated with 5-10 adult cat fleas (Ctenocephalides felis), sealed with a perforated plastic lid and incubated in a horizontal position at room temperature and ambient humidity. After 48 h, efficacy is determined. To this end, the tubes are stood upright and the fleas are knocked to the base of the tube. Fleas which remain motionless at the base or move in an uncoordinated manner are considered to be dead or moribund. […] 100% efficacy means that all the fleas were dead or moribund. 0% efficacy means that no fleas were harmed.
# Musca domestica = Musca domestica test; conditions: 100 ppm, adult houseflies, after 2 days
# Protocol: Solvent: dimethyl sulfoxide To produce a suitable active ingredient formulation, 10 mg of active ingredient are mixed with 0.5 ml of dimethyl sulfoxide, and the concentrate is diluted with water to the desired concentration. Vessels containing a sponge treated with sugar solution and the active ingredient formulation of the desired concentration are populated with 10 adult houseflies (Musca domestica). After 2 days, the kill in % is determined. 100% means that all of the flies have been killed; 0% means that none of the flies have been killed.
# Spodoptera frugiperda = Spodoptera frugiperda spray test; conditions: 100 g/ha, after 6 days
# Protocol: [table] To produce a suitable active ingredient formulation, 1 part by weight of active ingredient is dissolved with the specified parts by weight of solvent and made up to the desired concentration with water containing an emulsifier concentration of 1000 ppm. To produce further test concentrations, the formulation is diluted with emulsifier-containing water. Leaf discs of maize (Zea mays) are sprayed with an active ingredient formulation of the desired concentration and, after drying, populated with caterpillars of the armyworm (Spodoptera frugiperda). After 6 days, the efficacy in % is determined. 100% means that all the caterpillars have been killed; 0% means that no caterpillar has been killed.
SMILES,Emax at 20 ppm (Diabrotica balteata),Emax at 4 g/ha (Nezara viridula),pest or weed control at 0.8 ppm (Myzus persicae),Emax at 4 ppm (Phaedon cochleariae; 4 ppm),Emax at 20 ppm (Phaedon cochleariae),Emax at 4 ppm (Aphis gossypii),efficacy (Ctenocephalides felis),efficacy (kill) (Musca domestica),efficacy (Spodoptera frugiperda)
"CCS(=O)(=O)c1ccc(NC(=O)NC)nc1-c1nc2cc(C(F)(F)C(F)(F)F)nnc2n1C [Example I-08, 1-{5-(ethylsulfonyl)-6-[7-methyl-3-(pentafluoroethyl)-7H-imidazo[4,5-c]pyridazin-6-yl]pyridin-2-yl}-3-methylurea]",100%,90%,90%,70%,90%,95%,–,–,–
CCS(=O)(=O)c1ccc(N(C)C(=O)NC)nc1-c1nc2cc(C(F)(F)C(F)(F)F)nnc2n1C [Example I-09],–,70%,90%,–,–,–,100%,–,–
CCS(=O)(=O)c1ccc(NC(=O)N(C)C)nc1-c1nc2cc(C(F)(F)C(F)(F)F)nnc2n1C [Example I-10],–,80%,100%,–,80%,75%,100%,90%,–
CCNC(=O)Nc1ccc(S(=O)(=O)CC)c(-c2nc3cc(C(F)(F)C(F)(F)F)nnc3n2C)n1 [Example I-13],–,80%,100%,–,–,–,100%,80%,83%
